Entries after “also recorded” stand apart in the source; their conditions may differ. Where two headings read alike, the source gives them in different places.
Legend:
[1] = target: HLA-A*02:01 (Homo sapiens, UniProt P04439, D140Y/D185E/D98H/E176V/E277Q/G131W/G231S/I119V/I121R/I166T/I218V/L300P/L318F/N151K/N90K/P208A/P217A/Q86G/Q94H/R138H/R169H/T345S); assay type: binding
[2] = target: HLA-A*26:01 (Homo sapiens, UniProt P04439, A114D/A173T/A270S/D101N/D185E/E277Q/E87N/F33Y/G231S/I121R/I218V/K168Q/L180W/L300P/L318F/P208A/P217A/Q86R/Q94H/R138Q/S129P/T187R/T323A/T345S/V100A/V358M); assay type: binding
[3] = test system: CD8+ T cells of HLA-A*02:01 subjects; assay type: cell-based, human
[4] = test system: CD8+ T cells of convalescent COVID-19 individuals; conditions: ref Tarke et al., 2020; cited from earlier work
[5] = test system: CD8+ T cells of HLA-B*07:02 subjects; assay type: cell-based, human

**Q.** For ELPDEFVVVTV, which “binding to A*02:01 (in words)” value [1] is on record?
**A.** The value was “binds”.

**Q.** What about the “binding to A*26:01 (in words)” value [2] of the same sequence?
**A.** Its value is “binds”.

**Q.** And the “CD8+ T cell response (in words)” value ([3]; nine HLA-A*02:01 samples (seven COVID-19 convalescent and two unexposed))?
**A.** Its value is “top five reactive peptides; also recorded: strongest CD8+ response among all tested HLA-I peptides”.

**Q.** Which “CD8+ T cell response (in words)” value [3] does the source give for KLWAQCVQL [reference compound] here?
**A.** The value was “weak responses”.

**Q.** Which “T cell responses in convalescent COVID-19 individuals expressing the predicted alleles” value [4] does the source give for QLTPTWRVY here?
**A.** Its value is “elicit T cell responses”.

**Q.** For RPPIFIRRL, which “CD8+ T cell response (in words)” value [5] is on record?
**A.** The value was “positive reactivity”.

Source: publication PMC8173604 (Cell, 2021)
